Results published in patent US20250236627A1, “CERTAIN OCTAHYDROFURO[3,4- B]PYRAZINES AS GLP-1 RECEPTOR MODULATORS” (ASTRAZENECA AB, priority 2021, published 2025).

Columns and labels:
human GLP-1R receptor = target: T1, human GLP-1R receptor (Homo sapiens, UniProt P43220, L260F); experiment: CHOK1 GLP-1R cAMP Assay; assay type: cell-based; details: CHO-K1 cell line stably expressing human GLP-1R; HTRF cAMP detection
T1 construct: expressed in transfected cells; host or cells: CHO-K1 (ATCC CCL-61)
T1 sequence (P43220 24-463 L260F): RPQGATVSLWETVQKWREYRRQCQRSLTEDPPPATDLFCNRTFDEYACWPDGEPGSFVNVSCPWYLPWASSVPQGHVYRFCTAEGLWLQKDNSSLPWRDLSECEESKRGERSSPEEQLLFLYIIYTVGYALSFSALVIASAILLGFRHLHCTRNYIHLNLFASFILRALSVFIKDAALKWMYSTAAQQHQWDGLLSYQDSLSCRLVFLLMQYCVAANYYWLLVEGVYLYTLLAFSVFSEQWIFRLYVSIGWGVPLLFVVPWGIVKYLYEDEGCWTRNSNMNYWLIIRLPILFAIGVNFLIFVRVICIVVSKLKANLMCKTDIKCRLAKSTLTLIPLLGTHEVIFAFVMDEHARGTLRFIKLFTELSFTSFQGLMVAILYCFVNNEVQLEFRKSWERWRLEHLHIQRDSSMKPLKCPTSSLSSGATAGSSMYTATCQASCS
Protocol: A cell line stably expressing the human GLP-1R receptor (NM_002062.5, including the naturally-occurring variant Leu260Phe) in a CHO-K1 (ATCC® CCL-61™) was used for assay.
GLP-1 Receptor mediated agonist activity was determined in a cell based assay measuring cAMP levels in cells using Homogeneous Time-Resolved Fluorescence (HTRF) cAMP detection kit (CisBio catalog #62AM4PEC, cAMP Gs Dynamic range kit). The cAMP detection method is based on a competitive immunoassay, in which cAMP produced by the cells and cAMP labeled with the dye d2 compete for binding to a Europium-Cryptate-labeled anti-cAMP antibody. The specific HTRF signal is inversely proportional to the concentration of cAMP.
Compounds were added to individual well in 384 well-assay plates (Greiner #784076) using an Echo (LabCyte) dispenser from 10 mM stocks. Varying concentration of compounds were added to wells, and dimethyl sulfoxide was used to normalize each well to a volume of 100 nanoliter. A dose response curve of GLP1(7-36)NH2 (Bachem H-6795) was included in each run. 5 μL of cAMP concentration response standards are applied in specified wells in the assay plates.
Cryo-preserved cells are thawed and resuspended in assay buffer pre-heated to 37° C. (20 mM 2-[4-(2-hydroxyethyl)piperazin-1-yl]ethanesulfonic acid (HEPES) pH 7.4, lx Hank's Balanced Salt Solution (HBSS, Life Technologies #14065) supplemented with 0.1% (w/v) bovine serum albumin (Sigma, A-7030)). Cells were centrifuged at 250*g for 5 min at room temperature, and resuspend in room tempered assay buffer to a final density of 0.16*10^6 cell/mL, to deliver 800 cells/well. 5 μL of assay buffer with 1 mM 3-isobutyl-1-methylxanthin (IBMX; Sigma cat I-7018) was dispensed per well in assay plates using a multidrop combi (Thermo Scientific) subsequently 5 μL of cell suspension was distributed to relevant wells in the assay using a multidrop dispenser. Assay plates were incubated 20 min at room temperature.
Detection reagents, Europium-Cryptate-labeled anti-cAMP antibody and cAMP labeled with the dye d2, are diluted in lysis buffer, provided by the manufacturer. 5 μL of each detection reagent is supplemented to each assay well using a multidrop dispenser. Assay plates are incubated in the dark for at least one hour. The HTRF signal is measured using the HTRF module (excitation: 337 nm, emission A: 665 nm and emission B: 620 nm) in Pherastar FSX (BMG Labtech).
Raw data were converted to pM cAMP using the cAMP standard curve included in each run. Converted data were further analyzed in Genedata Screener (Genedata) and EC50 determinations were made from agonist dose-response curves analyzed with a curve fitting program using a 4-parameter logistic dose response equation (Equation y=A+((B−A)/1+((C/x)^D))) where A is no stimulation, B is full stimulation, C is the EC50 and D is the Hill slope). The percent effect was determined relative to a saturating concentration of a full GLP-1R agonist (GLP1(7-36)NH2 has 100% effect in this assay setup).

[1] = target: T2, endogenous human glucagon-like peptide 1 receptor (GLP-1R) (Homo sapiens, UniProt P43220); experiment: EndoC cAMP Accumulation Assay; assay type: cell-based; details: EndoC-βH1 human pancreatic β cell line; HTRF cAMP assay
T2 construct: endogenous human glucagon-like peptide 1 receptor (GLP-1R) in a pancreatic insulinoma cell line; host or cells: EndoC-βH1 human pancreatic β cell line
T2 sequence (P43220 24-463): as the sequence (P43220 24-463 L260F) above, with F237L counted along it
From the text: EndoC cAMP Accumulation Assay
A HTRF (Homogeneous Time-Resolved Fluorescence) cAMP assay (cAMP Gs dynamic kit; CisoBio Cat #62AM4PEJ) was used to identify agonists of the endogenous human glucagon-like peptide 1 receptor (GLP-1R) in a pancreatic insulinoma cell line (EndoC-βH1). […] EndoC-βH1 cells have detectable GLP-1R mRNA as detected by qPCR^1. […] The EndoC-βH1 cell line is a valid model of human beta cells and applicable for screenings to identify novel drug target candidates (Mol. Metab., 2018, 8, 144-157). CisBio HTRF cAMP kits are based on a competitive immunoassay using cryptate-labelled anti-cAMP antibody and d2-labeled cAMP. The detection kit is intended for the direct quantitative determination of cAMP. The specific signal (i.e. energy transfer) is inversely proportional to the concentration of cAMP in the standard or sample. Test compounds (10 mM in DMSO) were diluted into assay buffer (HBSS (Sigma #H8264) supplemented with 25 mM HEPES (Gibco #15630, pH 7.4), 0.1% BSA (Sigma #A3059) and 0.5 mM IBMX (Sigma #I7018) included fresh on the day of the assay) into 96 well U-bottom plates (Greiner #650201). Diluted compounds were transferred to ECHO source PP plates (Labcyte #P-05525) and dose response curves were dispensed acoustically using ECHO 550 into black shallow-well u-bottom 384-well HTRF Assay Plates (Corning 4514).
Cryovials of EndoC-H1 (supplied at 1×10e^7 cells/vial) were used directly for screening. The cryovials and were removed from LN2 and thawed rapidly in a 37° C. water bath. The cells were resuspended in assay buffer and centrifuged at 300 g for 5 min. Cells were resuspended in assay buffer at the appropriate concentration, typically at 12e5 cells per mL (3000 cells per well, dependent on cell batch) and 2.5 μL diluted cells were added to all wells of destination plate by Multidrop combi reagent dispenser (Thermofisher). The plates were incubated at room temperature for 30 min. The assay was stopped by adding 2.5 μL anti-cAMP cryptate solution to all wells and 2.5 μL cAMP-d2 solution (both diluted 1:20 in lysis buffer) to columns 1-22 by Combi drop. A volume of 2.5 μL cAMP-d2 solution was added to wells E23 to P24 and 2.5 μL lysis buffer added to wells A23 to D24 by multichannel pipette. The plates were incubated at room temperature for 1 hr and read on an Envision plate reader using excitation wavelength of 320 nm and emission of 590 nm and 660 nm.
Raw data from Envision is converted to % DeltaF according to the manufacturer's instructions. Dose response curves are analysed via 4-Parameter Logistical Analysis and assay plate Z′ values obtained. Samples are graphed as percentage (%) activation plots compared to GIP (1-42, Bachem H-5645) with assay window defined by negative control as basal cell cAMP levels and positive control are defined by maximum GIP (82.5 nM) signal. GLP1 (7-36 amide, Bachem H-6795) dose response curve was included on all plates.

Row | Structure (SMILES) | EC50 (human GLP-1R receptor) [nM] | EC50 [1] [nM]
1 | C[C@]1(c2ccc(Cl)cn2)Oc2cccc(N3CCN(Cc4nc5c(Cl)cc(C(=O)O)cc5n4C[C@@H]4CCCO4)[C@H]4COC[C@H]43)c2O1 (single isomer, unassigned) [Example 4a, 4-Chloro-2-(((4aR*,7aS*)-4-((R*)-2-(5-chloropyridin-2-yl)-2-methylbenzo[d][1,3]dioxol-4-yl)hexahydrofuro[3,4-b]pyrazin-1(2H)-yl)methyl)-1-(((S)-tetrahydrofuran-2-yl)methyl)-1H-benzo[d]imidazole-6-carboxylic acid] | 5.1 | 4.6
2 | C[C@]1(c2ccc(Cl)cn2)Oc2cccc(N3CCN(Cc4nc5c(Cl)cc(C(=O)O)cc5n4C[C@@H]4CCCO4)[C@H]4COC[C@H]43)c2O1 (single isomer, unassigned) [Example 4b, 4-Chloro-2-(((4aR*,7aS*)-4-((R*)-2-(5-chloropyridin-2-yl)-2-methylbenzo[d][1,3]dioxol-4-yl)hexahydrofuro[3,4-b]pyrazin-1(2H)-yl)methyl)-1-(((S)-tetrahydrofuran-2-yl)methyl)-1H-benzo[d]imidazole-6-carboxylic acid] | 80 | 130
3 | C[C@]1(c2ccc(Cl)cn2)Oc2cccc(N3CCN(Cc4nc5ccc(C(=O)O)cc5n4C[C@@H]4CCO4)[C@H]4COC[C@H]43)c2O1 (single isomer, unassigned) [Example 5c, 2-(((4aR*,7aS*)-4-((R*)-2-(5-Chloropyridin-2-yl)-2-methylbenzo[d][1,3]dioxol-4-yl)hexahydrofuro[3,4-b]pyrazin-1(2H)-yl)methyl)-1-(((S)-oxetan-2-yl)methyl)-1H-benzo[d]imidazole-6-carboxylic acid] | 100 | 610
4 | C[C@]1(c2ccc(Cl)cn2)Oc2cccc(N3CCN(Cc4nc5ccc(C(=O)O)cc5n4C[C@@H]4CCO4)[C@H]4COC[C@H]43)c2O1 (single isomer, unassigned) [Example 5d, 2-(((4aR*,7aS*)-4-((R*)-2-(5-Chloropyridin-2-yl)-2-methylbenzo[d][1,3]dioxol-4-yl)hexahydrofuro[3,4-b]pyrazin-1(2H)-yl)methyl)-1-(((S)-oxetan-2-yl)methyl)-1H-benzo[d]imidazole-6-carboxylic acid] | 330 | 2100
5 | C[C@]1(c2ccc(Cl)cc2F)Oc2cccc(N3CCN(Cc4nc5ccc(C(=O)O)cc5n4C[C@@H]4CCO4)[C@H]4COC[C@H]43)c2O1 (single isomer, unassigned) [Example 6b, 2-(((4aR*,7aS*)-4-((R*)-2-(4-Chloro-2-fluorophenyl)-2-methylbenzo[d][1,3]dioxol-4-yl)hexahydrofuro[3,4-b]pyrazin-1(2H)-yl)methyl)-1-(((S)-oxetan-2-yl)methyl)-1H-benzo[d]imidazole-6-carboxylic acid] | 54 | 300
6 | C[C@]1(c2ccc(Cl)cc2F)Oc2cccc(N3CCN(Cc4nc5ccc(C(=O)O)cc5n4C[C@@H]4CCO4)[C@H]4COC[C@H]43)c2O1 (single isomer, unassigned) [Example 6c, 2-(((4aR*,7aS*)-4-((R*)-2-(4-Chloro-2-fluorophenyl)-2-methylbenzo[d][1,3]dioxol-4-yl)hexahydrofuro[3,4-b]pyrazin-1(2H)-yl)methyl)-1-(((S)-oxetan-2-yl)methyl)-1H-benzo[d]imidazole-6-carboxylic acid] | 39 | 150
7 | C[C@]1(c2ccc(Cl)cc2F)Oc2cccc(N3CCN(Cc4nc5ccc(C(=O)O)cc5n4C[C@@H]4CCO4)[C@H]4COC[C@H]43)c2O1 (single isomer, unassigned) [Example 6d, 2-(((4aR*,7aS*)-4-((R*)-2-(4-Chloro-2-fluorophenyl)-2-methylbenzo[d][1,3]dioxol-4-yl)hexahydrofuro[3,4-b]pyrazin-1(2H)-yl)methyl)-1-(((S)-oxetan-2-yl)methyl)-1H-benzo[d]imidazole-6-carboxylic acid] | 520 | 1100
8 | C[C@]1(c2ccc(Cl)cc2F)Oc2cccc(N3CCN(Cc4nc5ccc(C(=O)O)cc5n4CCn4cccn4)[C@H]4COC[C@H]43)c2O1 (single isomer, unassigned) [Example 7a] | 46 | 19
9 | C[C@]1(c2ccc(Cl)cc2F)Oc2cccc(N3CCN(Cc4nc5ccc(C(=O)O)cc5n4CCn4cccn4)[C@H]4COC[C@H]43)c2O1 (single isomer, unassigned) [Example 7c] | 110 | 3900
10 | C[C@]1(c2ccc(Cl)cn2)Oc2cccc(N3CCN(Cc4nc5ccc(C(=O)O)cc5n4C[C@@H]4CCCO4)[C@H]4COC[C@H]43)c2O1 (single isomer, unassigned) [Example 8b, 2-(((4aR*,7aS*)-4-((R*)-2-(5-Chloropyridin-2-yl)-2-methylbenzo[d][1,3]dioxol-4-yl)hexahydrofuro[3,4-b]pyrazin-1(2H)-yl)methyl)-1-(((S)-tetrahydrofuran-2-yl)methyl)-1H-benzo[d]imidazole-6-carboxylic acid] | 530 | 1100
11 | C[C@]1(c2ccc(Cl)cn2)Oc2cccc(N3CCN(Cc4nc5c(F)cc(C(=O)O)cc5n4C[C@@H]4CCO4)[C@H]4COC[C@H]43)c2O1 (single isomer, unassigned) [Example 9b, 2-((4aR*,7aS*)-4-((R*)-2-(5-Chloropyridin-2-yl)-2-methylbenzo[d][1,3]dioxol-4-yl)hexahydrofuro[3,4-b]pyrazin-1(2H)-yl)methyl)-4-fluoro-1-(((S)-oxetan-2-yl)methyl)-1H-benzo[d]imidazole-6-carboxylic acid] | 180 | 660
